Test results published in US20250032485A1, “APPLICATION OF IMIDAZO [1,2-A] PYRAZINE COMPOUNDS OR THEIR PHARMACEUTICALLY ACCEPTABLE SALTS IN THE PREPARATION OF ANTI-CORONAVIRUS DRUGS” (GUANGZHOU MEDICAL UNIVERSITY, priority 2023, published 2025).

Target: PLpro of SARS-CoV-2 (Severe acute respiratory syndrome coronavirus 2, UniProt P0DTD1)
Assay: Enzyme activity test in vitro: inhibition of PLpro at fixed concentration 50 μM (RLRGG-AMC substrate)
Type: biochemical
Details: read-out: Inhibition rate at 50 μM (%)

Compound: COC(=O)c1ccc(-c2nc3cnccn3c2NC2CCCCC2)cc1 [P24359, methyl 4-[3-(cyclohexylamino)imidazo[1,2-a]pyrazin-2-yl]benzoate]
- inhibition at 50 µM: 37.1%

Compound: CCOC(=O)c1ccc(Nc2c(-c3ccc(N4CCOCC4)cc3)nc3cnccn23)cc1 [P24803, ethyl 4-[[2-(4-morpholin-4-ylphenyl)imidazo [1,2-a]pyrazin-3-yl]amino]benzoate]
- inhibition at 50 µM: 24.7%

Compound: O=C(O)c1ccc(Nc2c(-c3ccc(N4CCOCC4)cc3)nc3cnccn23)cc1 [P24813, 4-[[2-(4-morpholin-4-ylphenyl)imidazo [1,2-a]pyrazin-3-yl]amino]benzoic acid]
- inhibition at 50 µM: 31.9%

Compound: COC(=O)c1cccc(Nc2c(-c3ccc([N+](=O)[O-])cc3)nc3cnccn23)c1 [P24823, methyl 3-[[2-(4-nitrophenyl)imidazo[1,2-a]pyrazin-3-yl]amino] benzoate]
- inhibition at 50 µM: 31.2%

Compound: O=C(O)c1cccc(Nc2c(-c3ccc(N4CCOCC4)cc3)nc3cnccn23)c1 [P24833, 3-[[2-(4-morpholin-4-ylphenyl)imidazo [1,2-a]pyrazin-3-yl]amino]benzoic acid]
- inhibition at 50 µM: 35.1%

Compound: COc1ccc(-c2nc3cnccn3c2Nc2ccc3c(c2)OCCO3)cc1OC [P24852, N-(2,3-dihydro-1,4-benzodioxin-6-yl)-2-(3,4-dimethoxy-phenyl)imidazo[1,2-a]pyrazin-3-amine]
- inhibition at 50 µM: 24.9%

Compound: COC(=O)c1ccc(-c2nc3cnccn3c2Nc2ccc3c(c2)OCCO3)cc1 [P24862, methyl 4-[3-(2,3-dihydro-1,4-benzodioxin-6-ylamino)imidazo[1,2-a]pyrazin-2-yl] benzoate]
- inhibition at 50 µM: 30.1%

Compound: COC(=O)c1ccc(-c2nc3cnccn3c2Nc2ccc3c(c2)OCO3)cc1 [P24872, methyl 4-[3-(1,3-benzodioxol-5-ylamino)imidazo [1,2-a]pyrazin-2-yl]benzoate]
- inhibition at 50 µM: 27.2%

Compound: Fc1ccc(-c2nc3cnccn3c2Nc2ccc3c(c2)OCO3)cc1 [P28366, N-(1,3-benzodioxol-5-yl)-2-(4-fluoro-phenyl)imidazo[1,2-a]pyrazin-3-amine]
- inhibition at 50 µM: 36.3%

Compound: COC(=O)c1ccc(-c2nc3cnccn3c2Nc2ccc(OC)cc2)cc1 [P28376, methyl 4-[3-(4-methoxy-anilino)imidazo[1,2-a]pyrazin-2-yl]benzoate]
- inhibition at 50 µM: 28.5%

Compound: CCNC(=O)c1cccc(Nc2c(-c3ccc(OC)cc3)nc3cnccn23)c1 [P28734, N-ethyl-3-[[2-(4-methoxyphenyl)imidazo[1,2-a]pyrazin-3-yl]amino]benzamide]
- inhibition at 50 µM: 41%

Compound: Cc1cccc(C)c1Nc1c(-c2ccccc2)nc2cnccn12 [P32333, N-(2,6-dimethylphenyl)-2-phenylimidazo [1,2-a]pyrazin-3-amine]
- inhibition at 50 µM: 35.8%

Compound: COC(=O)c1cccc(Nc2c(-c3cccc(Br)c3)nc3cnccn23)c1 [P32343, methyl 3-[[2-(3-bromophenyl)imidazo[1,2-a]pyrazin-3-yl]amino] benzoate]
- inhibition at 50 µM: 12.9%

Compound: CCc1cccc(C)c1Nc1c(-c2ccc(C(=O)OC)cc2)nc2cnccn12 [P36232, methyl 4-[3-(2-ethyl-6-methylanilino)imidazo [1,2-a]pyrazin-2-yl]benzoate]
- inhibition at 50 µM: 20.3%

Compound: COC(=O)c1ccc(-c2nc3cnccn3c2NC2CCCC2)cc1 [P37287, methyl 4-[3-(cyclopentyl-amino)imidazo[1,2-a]pyrazin-2-yl] benzoate]
- inhibition at 50 µM: 21%

Compound: COC(=O)c1cccc(Nc2c(-c3cccc(O)c3)nc3cnccn23)c1 [P37288, methyl 3-[[2-(3-hydroxy-phenyl)imidazo[1,2-a]pyrazin-3-yl]amino]benzoate]
- inhibition at 50 µM: 13.2%

Compound: COC(=O)c1ccc(-c2nc3cnccn3c2Nc2ccc(C(C)C)cc2)cc1 [P37297, methyl 4-[3-(4-propan-2-ylanilino)imidazo[1,2-a]pyrazin-2-yl] benzoate]
- inhibition at 50 µM: 22.3%

Compound: CSc1ccc(-c2nc3cnccn3c2Nc2cccc(C(=O)O)c2)cc1 [P37298, 3-[[2-(4-methyl-sulfanylphenyl)imidazo [1,2-a]pyrazin-3-yl]amino]benzoic acid]
- inhibition at 50 µM: 33.6%
